Experimental data reported in ChEMBL document CHEMBL5131523, “Long-Awaited Small-Molecule Drug Candidate for Drugging the Next Undruggable KRASG12D Mutant in Cancer Therapy” (ACS Med Chem Lett, 2022).
pIC50: −log10 of the molar value.

Test system: BaF3
Experiment: Antiproliferative activity against mouse BaF3 cells harboring KRAS G12D mutant assessed as inhibition of cell proliferation incubated for 3 days by CellTiter-Glo assay
Format: toxicity, cell-based
Details: BaF3, 72 h

## Oc1cc(-c2nc(Cl)c3c(N4C[C@H]5CC[C@@H](C4)N5)nc(OC[C@@]45CCCN4C[C@H](F)C5)nc3c2F)c2ccccc2c1
  pIC50: ≥ 6.30

## Oc1cc(-c2nc(O)c3c(N4C[C@H]5CC[C@@H](C4)N5)nc(OC[C@@]45CCCN4C[C@H](F)C5)nc3c2F)c2c(Cl)c(F)ccc2c1
  pIC50: 6.30

## C#Cc1c(F)ccc2cc(O)cc(-c3nc(OCC(F)F)c4c(N5C[C@H]6CC[C@@H](C5)N6)nc(OC[C@@]56CCCN5C[C@H](F)C6)nc4c3F)c12
  pIC50: ≥ 6.30

## C#Cc1c(F)ccc2cc(O)cc(-c3nc(OC(F)F)c4c(N5C[C@H]6CC[C@@H](C5)N6)nc(OC[C@@]56CCCN5C[C@H](F)C6)nc4c3F)c12
  pIC50: ≥ 6.30

## CCOc1nc(-c2cc(O)cc3ccc(F)c(Cl)c23)c(F)c2nc(OC[C@@]34CCCN3C[C@H](F)C4)nc(N3C[C@H]4CC[C@@H](C3)N4)c12
  pIC50: ≥ 6.30

## C#Cc1c(F)ccc2cc(O)cc(-c3nc(OC(C)C)c4c(N5C[C@H]6CC[C@@H](C5)N6)nc(OC[C@@]56CCCN5C[C@H](F)C6)nc4c3F)c12
  pIC50: ≥ 6.30

## C#Cc1c(F)ccc2cc(O)cc(-c3nc(OC(C)C)c4c(N5C[C@H]6CC[C@@H](C5)N6)nc(C(F)F)nc4c3F)c12
  pIC50: ≥ 6.30

## C#Cc1c(F)ccc2cc(O)cc(-c3nc(OC(C)C)c4c(N5C[C@H]6CC[C@@H](C5)N6)nc(NC)nc4c3F)c12
  pIC50: 6.30

## Fc1c(-c2cccc3cccc(Cl)c23)ncc2c(N3C[C@H]4CC[C@@H](C3)N4)nc(OCC34CCCN3CCC4)nc12
  pIC50: ≥ 6.30

## C#Cc1c(F)ccc2cc(O)cc(-c3nc(OCC)c4c(N5CCNC6(CCC6)C5)nc(OC[C@@]56CCCN5C[C@H](F)C6)nc4c3F)c12
  pIC50: ≥ 6.30

## Cc1nc(-c2cc(O)cc3cccc(Cl)c23)c(F)c2nc(OC[C@@]34CCCN3C[C@H](F)C4)nc(N3C[C@H]4CC[C@@H](C3)N4)c12
  pIC50: ≥ 6.30

## Cc1cccc2cc(O)cc(-c3nc(C)c4c(N5C[C@H]6CC[C@@H](C5)N6)nc(OC[C@@]56CCCN5C[C@H](F)C6)nc4c3F)c12
  pIC50: ≥ 6.30
